Test results published in publication PMC10065799, “High-throughput profiling of sequence recognition by tyrosine kinases and SH2 domains using bacterial peptide display” (eLife, 2023).

What was measured:
c-Src kinase domain [1] = molecular target: T1, c-Src kinase domain (Homo sapiens, UniProt P12931); test: RP-HPLC assay to measure peptide phosphorylation kinetics; format: biochemical; conditions: purified peptide substrate
Protocol: To validate the enrichment scores observed in the c-Src screening data, the phosphorylation rates were measured in vitro with the purified catalytic domain of c-Src and synthetic 11-residue peptides derived from sequences in the pTyr-Var library. […] Reactions were initiated by adding 1 mM ATP. At various time points, 100 μL aliquots were removed and quenched by the addition of EDTA to a final concentration of 25 mM. Each time point sample was analyzed by analytical RP-HPLC, monitoring absorbance at 214 nm. Forty μL of each time point was injected onto a C18 column (ZORBAX 300 SB-C18, 5 μm, 4.6x150 mm). The solvent system used was water with 0.1% trifluoroacetic acid (solvent A) and acetonitrile with 0.1% trifluoroacetic acid (solvent B). […] The fractional product peak area was plotted as a function of reaction time, and the initial linear regime of this plot was fitted to a straight line to determine a reaction rate. Rates were corrected for substrate and enzyme concentration. Reactions were done in triplicate or quadruplicate.

FGFR3 kinase domain = test: pTyr-Var library bacterial peptide display kinase screen (enrichment scores); format: biochemical, human
Fer kinase domain = test: as above; format: biochemical, mouse;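 on Fer hit?: Hit requires p below 0.05 and at least twofold variant vs reference change plus filters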
c-Src kinase domain [2] = molecular target: T1, c-Src kinase domain; test: as above; format: biochemical
[3] = tested on: 4G10 Platinum pan-phosphotyrosine antibody; test: Phosphorylated pTyr-Var library selection with biotinylated pan-phosphotyrosine antibody; format: binding, mouse; conditions: enrichment score, sheet SH2-vs-peptide
Jak2 = test: pTyr-Var library bacterial peptide display kinase screen (enrichment scores); format: biochemical, human
Fyn kinase domain = test: as above; format: biochemical, human;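 on Fyn hit?: Hit requires p below 0.05 and at least twofold variant vs reference change plus filters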
AncSZ kinase domain = test: as above; format: biochemical;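 on AncSZ hit?: Hit requires p below 0.05 and at least twofold variant vs reference change plus filters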
MERTK kinase domain = test: as above; format: biochemical, human
c-Src SH2 domain = c-Src SH2 domain (Homo sapiens, UniProt P12931); test: pTyr-Var library SH2 domain screen with SH2-dynabeads (enrichment scores); conditions: sheet c-Src
Grb2 SH2 domain = test: as above
FGFR1 kinase domain = test: pTyr-Var library bacterial peptide display kinase screen (enrichment scores); format: biochemical, human
SHP2 C-SH2 domain = test: pTyr-Var library SH2 domain screen with SH2-dynabeads (enrichment scores)
c-Abl kinase domain [4] = molecular target: T2, c-Abl kinase domain (Mus musculus, UniProt P00520); test: pTyr-Var library bacterial peptide display kinase screen (enrichment scores); format: biochemical
T2 sequence (P00520 242-493 limits assumed): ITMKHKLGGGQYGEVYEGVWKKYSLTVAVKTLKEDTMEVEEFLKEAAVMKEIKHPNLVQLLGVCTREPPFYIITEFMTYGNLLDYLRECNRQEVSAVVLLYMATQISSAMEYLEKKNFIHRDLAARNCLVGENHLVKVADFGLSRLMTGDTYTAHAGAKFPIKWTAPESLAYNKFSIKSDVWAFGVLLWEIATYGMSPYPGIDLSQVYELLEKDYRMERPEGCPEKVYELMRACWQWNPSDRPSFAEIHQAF

Fes = test: as above; format: biochemical
Hck kinase domain = test: as above; format: biochemical, human
EPHB1 kinase domain = test: as above; format: biochemical, human
EPHB2 kinase domain [5] = test: as above; format: biochemical, human
c-Abl kinase domain [6] = molecular target: T2, c-Abl kinase domain; test: ADP-Quest continuous fluorimetric kinase assay (Michaelis-Menten parameters and initial rates); format: biochemical; conditions: c-Abl kinase domain 10 nM, 100 μM ATP, 37 °C, three to five replicates, error = standard error of global Michaelis-Menten fit
Text: (§1) A fluorescence-based assay from Eurofins (ADP Quest) was used to measure the Michaelis-Menten kinetic parameters for phosphorylation of the consensus peptides by purified tyrosine kinase domains. In this assay, ADP production as a result of kinase activity is coupled to the production of resorufin, a fluorophore that emits signal at 590 nm. For all experiments, the assay reactions were set up as described in the provided assay kit protocol, in a 384 well plate format. The peptide solutions were serially diluted in 100 mM Tris, pH 8.0, and the kinases were diluted to 50 nM in buffer (10 mM HEPES, 100 mM NaCl, 1 mM TCEP, 5 mM MgCl2, 10% (v/v) glycerol). The final reaction mixtures contained 10 nM of kinase with 100 μM of ATP. Reactions were initiated with the addition of 1 mM ATP into a 50 μL reaction mixture for a final concentration of 100 μM ATP. Phosphorylation reaction progress was monitored by measuring fluorescence at excitation 530 nm and emission 590 nm every 2 min at 37 °C on a plate reader (BioTek Synergy Neo 2). The fluorescence units (RFU) were converted to μM ADP by comparison to a standard curve, and the initial rates were extracted from the linear regime of the reaction progress curves. Initial rates were also measured for samples containing each kinase but lacking a peptide substrate, to account for background ATP hydrolysis. This background rate was subtracted from the rates measured in the presence of peptide. The subtracted rates were plotted as a function of substrate concentration and fit to the Michaelis-Menten equation to extract kcat and KM values.

c-Src kinase domain [7] = molecular target: T1, c-Src kinase domain; test: as above; format: biochemical; conditions: c-Src kinase domain 10 nM, 100 μM ATP, 37 °C, three to five replicates, error = standard error of global Michaelis-Menten fit
Text: as §1

EPHB2 kinase domain [8] = test: ADP-Quest continuous fluorimetric kinase assay (initial rates of consensus peptides); format: biochemical, human; conditions: peptide 100 μM, kinase 10–50 nM; Figure 2C
Text: as §1, with “Reactions were initiated with the addition of 1 mM ATP into a 50 μL reaction mixture for a final concentration of 100 μM ATP.” left out, “The subtracted rates were plotted as a function of substrate concentration and fit to the Michaelis-Menten equation to extract kcat and KM values.” left out

[9] = mean of log2(variant) minus mean of log2(reference)
[10] = mean of log2 enrichment of variant peptide, n = 5
[11] = pTyr-Var library, variant peptide enrichment, mean of n = 5
[12] = mean of log2 of enrichment over R1-R4
[13] = pTyr-Var library, enrichment score, replicate 1
[14] = pTyr-Var library, enrichment score, replicate 3
[15] = pTyr-Var library, enrichment score, replicate 4
[16] = variant versus reference peptide
[17] = variant versus reference peptide, significant hit TRUE/FALSE
[18] = mean of log2 enrichment of variant peptide, n = 4
[19] = pTyr-Var library, variant peptide enrichment, mean of n = 4
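Wherever c-Src hit? is given: Hit requires p below 0.05 and at least twofold variant vs reference change plus filters.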

Ac-VASSLYDILAR-NH2 [GLB1_Y294]
Phosphorylation Rate (c-Src kinase domain [1]): 0.892 s⁻¹

ATVQNYLPKCI [A2M_Y817_L815Q]
difference (FGFR3 kinase domain; [9]): -0.3951 | mean of log2(variant) (FGFR3 kinase domain; [10]): -1.056 | var. mean (FGFR3 kinase domain; [11]): 0.4887 | Fer mean of log2(enrichment) (Fer kinase domain; [12]): -1.311 | Fer enrich. R1 (Fer kinase domain; [13]): 0.4446 | Fer enrich. R3 (Fer kinase domain; [14]): 0.4557 | Fer enrich. R4 (Fer kinase domain; [15]): 0.3278 | Fer difference (mean log2 variant - mean log2 reference) (Fer kinase domain; [16]): -0.03599 | Fer hit? (Fer kinase domain; [17]): FALSE | c-Src mean of log2(enrichment) (c-Src kinase domain [2]; [12]): -1.474 | c-Src enrich. R1 (c-Src kinase domain [2]; [13]): 0.3685 | c-Src enrich. R3 (c-Src kinase domain [2]; [14]): 0.3322 | c-Src enrich. R4 (c-Src kinase domain [2]; [15]): 0.416 | c-Src difference (mean log2 variant - mean log2 reference) (c-Src kinase domain [2]; [16]): -0.08063 | c-Src hit? (c-Src kinase domain [2]; [17]): FALSE | 4G10 (mean) [3]: 0.5753 | Jak2 mean of log2(enrichment) (Jak2; mean of log2 of enrichment over R1-R3): -0.5861 | Jak2 enrich. R1 (Jak2; [13]): 0.5921 | Jak2 enrich. R3 (Jak2; [14]): 0.5314 | Jak2 difference (mean log2 variant - mean log2 reference) (Jak2; [16]): -0.3549 | Jak2 hit? (Jak2; [17]): FALSE | Fyn mean of log2(enrichment) (Fyn kinase domain; [12]): -1.466 | Fyn enrich. R1 (Fyn kinase domain; [13]): 0.4872 | Fyn enrich. R3 (Fyn kinase domain; [14]): 0.3635 | Fyn enrich. R4 (Fyn kinase domain; [15]): 0.2869 | Fyn difference (mean log2 variant - mean log2 reference) (Fyn kinase domain; [16]): -0.247 | Fyn hit? (Fyn kinase domain; [17]): FALSE | AncSZ mean of log2(enrichment) (AncSZ kinase domain; mean of log2 of enrichment over R1-R5): -0.7038 | AncSZ enrich. R1 (AncSZ kinase domain; [13]): 0.6587 | AncSZ enrich. R3 (AncSZ kinase domain; [14]): 0.7943 | AncSZ enrich. R4 (AncSZ kinase domain; [15]): 0.5045 | AncSZ enrich. R5 (AncSZ kinase domain; pTyr-Var library, enrichment score, replicate 5): 0.4741 | AncSZ difference (mean log2 variant - mean log2 reference) (AncSZ kinase domain; [16]): -0.2377 | AncSZ hit? (AncSZ kinase domain; [17]): FALSE | difference (MERTK kinase domain; [9]): -0.01109 | mean of log2(variant) (MERTK kinase domain; [18]): -1.438 | var. mean (MERTK kinase domain; [19]): 0.3721 | difference (c-Src SH2 domain; [9]): -0.03544 | mean of log2(variant) (c-Src SH2 domain; mean of log2 enrichment of variant peptide, R1-R3): -1.014 | var. mean (c-Src SH2 domain; variant peptide, mean of R1-R3): 0.4965 | difference (Grb2 SH2 domain; Grb2 SH2, mean of log2(variant) minus mean of log2(reference)): -0.167 | mean of log2(variant) (Grb2 SH2 domain; Grb2 SH2, mean of log2 enrichment of variant, R1-R3): -0.3239 | hit? (Grb2 SH2 domain; Grb2 SH2, variant versus reference significant hit call): FALSE | var. mean (Grb2 SH2 domain; variant peptide enrichment score, Grb2 SH2, mean of R1-R3): 0.8266 | difference (FGFR1 kinase domain; [9]): -0.151 | mean of log2(variant) (FGFR1 kinase domain; [10]): -1.149 | var. mean (FGFR1 kinase domain; [11]): 0.4624 | difference (SHP2 C-SH2 domain; SHP2-C SH2, mean of log2(variant) minus mean of log2(reference)): -0.37 | mean of log2(variant) (SHP2 C-SH2 domain; SHP2-C SH2, mean of log2 enrichment of variant, R1-R3): -0.8263 | hit? (SHP2 C-SH2 domain; SHP2-C SH2, variant versus reference significant hit call): FALSE | var. mean (SHP2 C-SH2 domain; variant peptide enrichment score, SHP2-C SH2, mean of R1-R3): 0.5806 | c-Abl mean of log2(enrichment) (c-Abl kinase domain [4]; [12]): -0.576 | c-Abl enrich. R1 (c-Abl kinase domain [4]; [13]): 0.4837 | c-Abl enrich. R3 (c-Abl kinase domain [4]; [14]): 0.713 | c-Abl enrich. R4 (c-Abl kinase domain [4]; [15]): 0.6552 | c-Abl hit? (c-Abl kinase domain [4]; [17]): FALSE | Fes mean of log2(enrichment) (Fes; mean of log2 of enrichment over R1-R6): -0.2803 | Fes difference (mean log2 variant - mean log2 reference) (Fes; [16]): -0.2401 | Hck mean of log2(enrichment) (Hck kinase domain; mean of log2(variant) / mean of log2(reference), R1-R4): 0.3462 | Hck enrich. R1 (Hck kinase domain; [13]): 0.3734 | Hck enrich. R3 (Hck kinase domain; [14]): 0.3895 | Hck enrich. R4 (Hck kinase domain; [15]): 0.2207 | Hck difference (variant - reference) (Hck kinase domain; [16]): -0.2528 | Hck hit? (Hck kinase domain; [17]): FALSE | difference (EPHB1 kinase domain; [9]): -0.7634 | mean of log2(variant) (EPHB1 kinase domain; [18]): -1.369 | var. mean (EPHB1 kinase domain; [19]): 0.3903 | difference (EPHB2 kinase domain [5]; [9]): -0.2469 | mean of log2(variant) (EPHB2 kinase domain [5]; [18]): -1.144 | var. mean (EPHB2 kinase domain [5]; [19]): 0.4818

Ac-GPDEPIYAVPPIKKKG-NH2 [Abl Consensus, c-Abl consensus substrate peptide from X5-Y-X5 screen]
Km (c-Abl kinase domain [6]): 6 ± 2 µM | kcat (c-Abl kinase domain [6]): 3.0±0.2 s^–1 | Km (c-Src kinase domain [7]): 159 ± 31 µM | kcat (c-Src kinase domain [7]): 2.0±0.2 s^–1 | phosphorylation of consensus peptide by EPHB2 (initial rate relative to cognate consensus) (EPHB2 kinase domain [8]): efficiently phosphorylated
